pEC50, pIC50, pKi: −log10 of the molar value. Values belong to the molecule of their own block, whether it stands above or below them. Calls of active or inactive are those of the source. The rule behind the calls is not given here.
What was measured:
Mus musculus [1] = test: Neurotoxicity in C57/BL6 mouse assessed as induction of convulsion at 10 mg/kg, ip; assay type: toxicity, organism-based; settings: in vivo
[2] = target: T1, Metabotropic glutamate receptor 5 (Homo sapiens, UniProt P41594)
Description: Agonist activity at human mGlu5A receptor expressed in HEK293 cells coexpressing rat glutamate-aspartate transporter assessed as induction of Ca2+ release by calcium 4 dye based FLIPR assay

[3] = target: T1, Metabotropic glutamate receptor 5; remark: listed apart in the source
Description: Displacement of [3H]MPEPgamma in mGlu5 receptor (unknown origin) incubated for 60 mins by liquid scintillation counting method

[4] = target: T1, Metabotropic glutamate receptor 5; remark: listed apart in the source
Description: Positive allosteric modulation of human mGlu5A receptor expressed in HEK293 cells coexpressing rat glutamate-aspartate transporter assessed as potentiation of L-glutamate-induced Ca2+ signal incubated for 60 mins by calcium 4 dye based FLIPR assay

[5] = Protein binding in plasma (unknown origin); assay type: ADME, cell-free; settings: read-out: PPB (converted)
Mus musculus [6] = test: Neurotoxicity in C57/BL6 mouse assessed as induction of convulsion at 10 mg/kg, ip coadministered with (4R,5R)-5-Phenyl-4-(4-(phenylethynyl)pyridin-2-yl)oxazolidin-2-one; assay type: toxicity, organism-based; settings: in vivo
[7] = target: Metabotropic glutamate receptor 5 (Rattus norvegicus, UniProt P31424); test: Agonist activity at mGlu5A receptor in primary rat cortical astrocytes; assay type: cell-based
Mus musculus [8] = test: Toxicity in C57/BL6 mouse assessed as death at 3 mg/kg, ip; assay type: organism-based; settings: in vivo
Mus musculus [9] = test: Neurotoxicity in C57/BL6 mouse assessed as induction of convulsion at 3 mg/kg, ip; assay type: toxicity, organism-based; settings: in vivo
[10] = target: T1, Metabotropic glutamate receptor 5; test: Displacement of [3H]MPEP in mGlu5 receptor (unknown origin) incubated for 60 mins by liquid scintillation counting method
[11] = Cmax in rat at 100 mg/kg, po measured on day1; assay type: ADME, organism-based; set-up: dose 100 mg/kg, route oral; settings: in vivo
[12] = target: T2, Progesterone receptor (Homo sapiens) (UniProt P06401); test: Agonist activity at progesterone receptor (unknown origin)
T2 sequence (whole entry): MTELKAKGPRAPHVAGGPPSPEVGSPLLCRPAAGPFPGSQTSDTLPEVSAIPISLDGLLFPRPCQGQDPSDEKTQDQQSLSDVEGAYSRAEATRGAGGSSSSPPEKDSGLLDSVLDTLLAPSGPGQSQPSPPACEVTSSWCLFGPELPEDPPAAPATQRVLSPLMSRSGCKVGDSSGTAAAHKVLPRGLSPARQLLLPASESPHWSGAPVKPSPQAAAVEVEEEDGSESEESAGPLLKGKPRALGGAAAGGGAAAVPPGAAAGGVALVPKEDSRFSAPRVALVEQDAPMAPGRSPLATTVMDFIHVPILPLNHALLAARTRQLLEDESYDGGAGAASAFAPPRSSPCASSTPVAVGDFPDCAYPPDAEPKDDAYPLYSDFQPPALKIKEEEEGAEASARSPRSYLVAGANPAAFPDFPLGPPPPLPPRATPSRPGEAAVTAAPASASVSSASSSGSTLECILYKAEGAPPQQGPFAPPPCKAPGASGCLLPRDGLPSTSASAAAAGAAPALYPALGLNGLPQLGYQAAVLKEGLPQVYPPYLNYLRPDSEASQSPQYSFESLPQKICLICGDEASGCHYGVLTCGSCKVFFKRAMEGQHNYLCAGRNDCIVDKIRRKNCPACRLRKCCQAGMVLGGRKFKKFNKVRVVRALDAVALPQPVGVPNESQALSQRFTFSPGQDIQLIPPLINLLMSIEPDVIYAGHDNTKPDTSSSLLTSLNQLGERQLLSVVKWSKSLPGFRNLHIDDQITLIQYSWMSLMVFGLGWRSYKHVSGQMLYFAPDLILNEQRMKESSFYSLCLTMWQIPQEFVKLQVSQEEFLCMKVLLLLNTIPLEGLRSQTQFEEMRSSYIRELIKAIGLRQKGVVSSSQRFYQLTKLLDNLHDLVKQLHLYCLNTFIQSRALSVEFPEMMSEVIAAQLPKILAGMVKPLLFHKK

[13] = target: Metabotropic glutamate receptor 4 (Homo sapiens) (UniProt Q14833); test: Agonist activity at mGlu4 receptor (unknown origin)
Sequence of Metabotropic glutamate receptor 4 (Homo sapiens) (Q14833 whole entry): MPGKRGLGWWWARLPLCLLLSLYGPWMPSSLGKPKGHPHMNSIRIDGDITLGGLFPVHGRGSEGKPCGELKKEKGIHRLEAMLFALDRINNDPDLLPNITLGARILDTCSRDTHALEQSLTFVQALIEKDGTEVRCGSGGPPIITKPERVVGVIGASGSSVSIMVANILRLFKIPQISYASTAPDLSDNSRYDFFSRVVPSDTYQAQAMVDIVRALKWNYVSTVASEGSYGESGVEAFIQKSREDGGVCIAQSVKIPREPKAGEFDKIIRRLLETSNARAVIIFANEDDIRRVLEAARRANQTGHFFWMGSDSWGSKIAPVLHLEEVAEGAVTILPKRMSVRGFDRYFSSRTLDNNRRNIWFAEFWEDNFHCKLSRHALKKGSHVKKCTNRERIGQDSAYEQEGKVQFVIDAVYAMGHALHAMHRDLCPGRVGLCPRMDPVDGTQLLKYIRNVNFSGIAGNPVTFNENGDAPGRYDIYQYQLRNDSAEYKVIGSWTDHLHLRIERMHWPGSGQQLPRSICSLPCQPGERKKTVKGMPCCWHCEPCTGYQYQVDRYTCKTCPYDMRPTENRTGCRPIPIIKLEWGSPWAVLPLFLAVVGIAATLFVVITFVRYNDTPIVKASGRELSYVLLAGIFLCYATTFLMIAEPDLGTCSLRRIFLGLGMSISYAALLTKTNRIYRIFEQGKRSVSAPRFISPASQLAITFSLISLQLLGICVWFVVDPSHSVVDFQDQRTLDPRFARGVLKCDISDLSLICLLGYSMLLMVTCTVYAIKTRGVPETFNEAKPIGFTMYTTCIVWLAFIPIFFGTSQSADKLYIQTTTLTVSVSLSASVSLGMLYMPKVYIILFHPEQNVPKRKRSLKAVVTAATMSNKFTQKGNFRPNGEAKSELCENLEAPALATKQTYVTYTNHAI

[14] = Inhibition of human recombinant CYP450; assay type: ADME
Progesterone receptor = target: T3, Progesterone receptor (Homo sapiens, UniProt P06401); test: Inhibition of progesterone receptor (unknown origin)
T3 sequence (P06401 whole entry): T2 sequence (whole entry)

Rattus norvegicus [15] = test: Neurotoxicity in rat assessed as neuronal necrosis in brain auditory complex at 100 mg/kg/day, po for 8 days by haematoxylin and eosin staining based assay; assay type: toxicity, organism-based; settings: in vivo, 192 h
[16] = target: Metabotropic glutamate receptor 6 (Homo sapiens) (UniProt O15303); test: Agonist activity at mGlu6 receptor (unknown origin)
Sequence of Metabotropic glutamate receptor 6 (Homo sapiens) (O15303 whole entry): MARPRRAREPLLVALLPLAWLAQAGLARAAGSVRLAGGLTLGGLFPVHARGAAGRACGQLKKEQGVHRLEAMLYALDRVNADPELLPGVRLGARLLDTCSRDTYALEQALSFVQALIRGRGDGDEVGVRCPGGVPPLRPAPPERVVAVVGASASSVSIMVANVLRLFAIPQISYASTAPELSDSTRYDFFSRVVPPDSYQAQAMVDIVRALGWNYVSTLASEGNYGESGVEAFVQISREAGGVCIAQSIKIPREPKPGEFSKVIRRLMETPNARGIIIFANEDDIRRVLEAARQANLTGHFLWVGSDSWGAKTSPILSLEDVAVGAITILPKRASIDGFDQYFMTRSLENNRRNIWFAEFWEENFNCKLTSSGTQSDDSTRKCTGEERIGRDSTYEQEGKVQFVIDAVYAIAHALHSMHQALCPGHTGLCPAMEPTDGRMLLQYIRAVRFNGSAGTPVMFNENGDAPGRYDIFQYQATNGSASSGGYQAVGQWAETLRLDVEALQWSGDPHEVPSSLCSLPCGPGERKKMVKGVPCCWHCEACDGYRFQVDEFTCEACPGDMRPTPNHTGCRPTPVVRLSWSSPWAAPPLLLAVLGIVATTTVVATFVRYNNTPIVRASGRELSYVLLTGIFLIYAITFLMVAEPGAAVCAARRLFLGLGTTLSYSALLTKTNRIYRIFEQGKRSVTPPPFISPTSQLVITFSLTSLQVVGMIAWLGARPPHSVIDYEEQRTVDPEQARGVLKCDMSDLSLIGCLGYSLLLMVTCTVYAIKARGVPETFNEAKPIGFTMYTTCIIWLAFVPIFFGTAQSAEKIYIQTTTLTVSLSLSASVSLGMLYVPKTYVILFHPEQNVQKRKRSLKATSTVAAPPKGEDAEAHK

[17] = Oral bioavailability in rat at 1 mg/kg; assay type: ADME, organism-based; settings: in vivo
[18] = Volume of distribution at steady state in rat at 1 mg/kg, iv; assay type: ADME, organism-based; settings: in vivo, read-out: Vdss
[19] = AUC (0 to 24 hrs) in rat at 100 mg/kg, po measured on day1; assay type: ADME, organism-based; set-up: time < 24 hr, dose 100 mg/kg, route oral; settings: in vivo
[20] = target: Metabotropic glutamate receptor 1 (Homo sapiens) (UniProt Q13255); test: Agonist activity at mGlu1 receptor (unknown origin)
[21] = target: Metabotropic glutamate receptor 4 (Homo sapiens) (UniProt Q14833); test: Positive allosteric modulation of mGlu4 receptor (unknown origin)
Brain [22] = test: Total drug level in Sprague-Dawley rat brain at 0.1 mg/kg, sc; assay type: ADME, organism-based; settings: in vivo, read-out: Drug uptake
[23] = target: Metabotropic glutamate receptor 3 (Homo sapiens) (UniProt Q14832); test: Agonist activity at mGlu3 receptor (unknown origin)
Mus musculus [24] = test: Cognitive enhancement effect in mouse assessed as reduction in time spent with familiar object in retention session at 0.3 to 3 mg/kg, sc treated for 60 mins prior to acquisition session measured after 24 hrs for 10 mins by novel object recognition assay; assay type: functional; settings: read-out: MED
Salmonella typhimurium [25] = test: Mutagenicity in Salmonella typhimurium by Ames test in presence of s9 liver fraction; assay type: toxicity, organism-based; settings: salmonella enterica subsp. enterica serovar typhimurium
Plasma [26] = test: Total plasma concentration in Sprague-Dawley rat at 0.1 mg/kg, sc; assay type: ADME, organism-based; settings: in vivo
Mus musculus [27] = test: Ex vivo receptor occupancy of mGlu5 receptor in C57/BL6 mouse at 10 to 30 mg/kg, ip relative to control; assay type: functional
Rattus norvegicus [28] = test: Reversal of NMDA antagonist MK-801-induced deficits in set shift performance in Sprague-Dawley rat assessed as reduction in number of trial required to achieve 8 consecutive correct selection at 0.1 to 3 mg/kg, sc pretreated for 25 mins followed by MK-801 injection measured after 35 mins by wisconsin card sorting test; assay type: functional; settings: read-out: MED
[29] = target: Metabotropic glutamate receptor 7 (Homo sapiens) (UniProt Q14831); test: Positive allosteric modulation of mGlu7 receptor (unknown origin)
Sequence of Metabotropic glutamate receptor 7 (Homo sapiens) (Q14831 whole entry): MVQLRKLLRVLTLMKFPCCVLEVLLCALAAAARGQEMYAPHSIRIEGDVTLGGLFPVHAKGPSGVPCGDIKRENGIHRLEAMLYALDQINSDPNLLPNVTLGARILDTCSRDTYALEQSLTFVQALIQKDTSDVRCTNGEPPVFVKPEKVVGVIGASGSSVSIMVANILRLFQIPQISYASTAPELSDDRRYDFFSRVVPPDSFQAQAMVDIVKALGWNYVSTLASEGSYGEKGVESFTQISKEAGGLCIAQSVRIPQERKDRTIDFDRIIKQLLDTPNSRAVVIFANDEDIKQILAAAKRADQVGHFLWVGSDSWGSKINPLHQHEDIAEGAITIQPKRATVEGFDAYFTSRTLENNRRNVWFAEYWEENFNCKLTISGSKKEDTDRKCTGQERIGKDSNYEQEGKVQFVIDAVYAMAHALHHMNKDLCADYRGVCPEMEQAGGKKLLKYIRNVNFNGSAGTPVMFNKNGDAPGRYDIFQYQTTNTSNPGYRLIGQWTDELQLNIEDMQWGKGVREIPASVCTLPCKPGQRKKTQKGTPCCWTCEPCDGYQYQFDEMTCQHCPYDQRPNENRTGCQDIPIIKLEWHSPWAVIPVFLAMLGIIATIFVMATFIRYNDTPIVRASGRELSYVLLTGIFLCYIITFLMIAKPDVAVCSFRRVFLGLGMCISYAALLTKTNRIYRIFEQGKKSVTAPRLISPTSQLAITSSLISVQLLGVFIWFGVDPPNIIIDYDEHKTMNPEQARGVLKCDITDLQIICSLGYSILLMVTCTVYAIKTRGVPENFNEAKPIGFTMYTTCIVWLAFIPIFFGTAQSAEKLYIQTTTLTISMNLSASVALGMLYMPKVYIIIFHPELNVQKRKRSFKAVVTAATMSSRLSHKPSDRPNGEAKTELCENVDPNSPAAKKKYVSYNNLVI

[30] = target: Metabotropic glutamate receptor 6 (Homo sapiens) (UniProt O15303); test: Positive allosteric modulation of mGlu6 receptor (unknown origin)
[31] = target: Metabotropic glutamate receptor 4 (Homo sapiens) (UniProt Q14833); test: Negative allosteric modulation of mGlu4 receptor (unknown origin)
Canis familiaris = test: Toxicity in dog administered as repeated dosage for 5 days; assay type: organism-based, Canis lupus familiaris; settings: in vivo, 120 h
[32] = target: Metabotropic glutamate receptor 8 (Homo sapiens) (UniProt O00222); test: Negative allosteric modulation of mGlu8 receptor (unknown origin)
Sequence of Metabotropic glutamate receptor 8 (Homo sapiens) (O00222 whole entry): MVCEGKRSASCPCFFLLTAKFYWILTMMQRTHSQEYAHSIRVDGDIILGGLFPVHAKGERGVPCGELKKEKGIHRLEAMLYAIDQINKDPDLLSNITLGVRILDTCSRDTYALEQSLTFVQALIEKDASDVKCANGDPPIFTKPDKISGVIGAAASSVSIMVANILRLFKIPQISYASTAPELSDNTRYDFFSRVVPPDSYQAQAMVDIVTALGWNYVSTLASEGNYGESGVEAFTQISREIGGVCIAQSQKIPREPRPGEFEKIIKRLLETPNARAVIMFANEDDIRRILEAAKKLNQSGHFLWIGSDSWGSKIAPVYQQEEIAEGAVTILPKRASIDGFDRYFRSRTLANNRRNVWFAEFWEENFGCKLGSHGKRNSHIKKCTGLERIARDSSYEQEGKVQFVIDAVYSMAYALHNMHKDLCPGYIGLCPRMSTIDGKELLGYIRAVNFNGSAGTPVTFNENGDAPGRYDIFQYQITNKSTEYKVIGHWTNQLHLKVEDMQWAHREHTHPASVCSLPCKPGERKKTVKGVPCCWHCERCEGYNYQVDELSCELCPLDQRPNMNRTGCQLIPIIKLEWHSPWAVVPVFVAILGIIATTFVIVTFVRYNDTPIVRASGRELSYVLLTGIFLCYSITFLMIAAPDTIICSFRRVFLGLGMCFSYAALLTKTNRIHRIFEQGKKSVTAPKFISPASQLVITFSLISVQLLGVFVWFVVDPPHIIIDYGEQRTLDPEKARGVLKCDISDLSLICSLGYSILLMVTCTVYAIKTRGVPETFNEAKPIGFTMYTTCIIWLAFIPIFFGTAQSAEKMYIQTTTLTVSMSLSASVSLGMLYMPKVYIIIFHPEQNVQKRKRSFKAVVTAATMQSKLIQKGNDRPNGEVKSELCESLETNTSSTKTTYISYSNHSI

[33] = target: Metabotropic glutamate receptor 1 (Homo sapiens) (UniProt Q13255); test: Positive allosteric modulation of mGlu1 receptor (unknown origin)
Rattus norvegicus [34] = test: Receptor occupancy of mGlu5 receptor in Sprague-Dawley rat at 0.1 mg/kg, sc relative to control; assay type: functional
[35] = target: Metabotropic glutamate receptor 2 (Homo sapiens) (UniProt Q14416); test: Negative allosteric modulation of mGlu2 receptor (unknown origin)
[36] = Oral bioavailability in dog at 1 mg/kg; assay type: ADME, organism-based, Canis lupus familiaris; settings: in vivo
Brain [37] = test: Total drug level in mouse brain at 0.3 mg/kg, sc; assay type: ADME, organism-based; settings: in vivo, read-out: Drug uptake
[38] = target: T2, Progesterone receptor (Homo sapiens); test: Antagonist activity at progesterone receptor (unknown origin)
Rattus norvegicus [39] = test: Toxicity in rat administered as repeated dosage for 2 weeks; assay type: organism-based; settings: in vivo, 336 h
[40] = target: Metabotropic glutamate receptor 7 (Homo sapiens) (UniProt Q14831); test: Negative allosteric modulation of mGlu7 receptor (unknown origin)
[41] = Oral bioavailability in cynomolgus monkey at 1 mg/kg; assay type: ADME, organism-based, Macaca fascicularis; settings: in vivo
[42] = Clearance in rat at 1 mg/kg, iv; assay type: ADME, organism-based; settings: in vivo
Salmonella typhimurium [43] = test: Mutagenicity in Salmonella typhimurium by Ames test; assay type: toxicity, organism-based; settings: salmonella enterica subsp. enterica serovar typhimurium
[44] = target: Metabotropic glutamate receptor 3 (Homo sapiens) (UniProt Q14832); test: Positive allosteric modulation of mGlu3 receptor (unknown origin)
[45] = target: Metabotropic glutamate receptor 2 (Homo sapiens) (UniProt Q14416); test: Agonist activity at mGlu2 receptor (unknown origin)
[46] = Ratio of drug level in brain to plasma in rat at 1 mg/kg, iv; assay type: ADME, organism-based; settings: read-out: BPR
Homo sapiens = organism: Homo sapiens; test: Inhibition of sodium channel (unknown origin) at 10 uM by patch clamp method relative to control
[47] = target: Metabotropic glutamate receptor 3 (Homo sapiens) (UniProt Q14832); test: Negative allosteric modulation of mGlu3 receptor (unknown origin)
[48] = target: Metabotropic glutamate receptor 8 (Homo sapiens) (UniProt O00222); test: Positive allosteric modulation of mGlu8 receptor (unknown origin)
Mus musculus [49] = test: Receptor occupancy of mGlu5 receptor in mouse at 0.3 mg/kg, sc relative to control; assay type: functional
[50] = target: Metabotropic glutamate receptor 1 (Homo sapiens) (UniProt Q13255); test: Negative allosteric modulation of mGlu1 receptor (unknown origin)
Rattus norvegicus [51] = test: Neurotoxicity in rat assessed as neuronal necrosis in brain hippocampal slice at 100 mg/kg/day, po for 8 days by haematoxylin and eosin staining based assay; assay type: toxicity, organism-based; settings: in vivo, 192 h
[52] = target: Metabotropic glutamate receptor 7 (Homo sapiens) (UniProt Q14831); test: Agonist activity at mGlu7 receptor (unknown origin)
[53] = target: Metabotropic glutamate receptor 6 (Homo sapiens) (UniProt O15303); test: Negative allosteric modulation of mGlu6 receptor (unknown origin)
[54] = target: Metabotropic glutamate receptor 2 (Homo sapiens) (UniProt Q14416); test: Positive allosteric modulation of mGlu2 receptor (unknown origin)
Plasma [55] = test: Total plasma concentration in mouse at 0.3 mg/kg, sc; assay type: ADME, organism-based; settings: in vivo
Mus musculus [56] = test: Neurotoxicity in C57/BL6 mouse assessed as induction of convulsion at 30 mg/kg, ip; assay type: toxicity, organism-based; settings: in vivo
[57] = target: Metabotropic glutamate receptor 8 (Homo sapiens) (UniProt O00222); test: Agonist activity at mGlu8 receptor (unknown origin)
[58] = target: Voltage-gated inwardly rectifying potassium channel KCNH2 (Homo sapiens, UniProt Q12809); test: Inhibition of human ERG by patch clamp method

T1 sequence (P41594 whole entry): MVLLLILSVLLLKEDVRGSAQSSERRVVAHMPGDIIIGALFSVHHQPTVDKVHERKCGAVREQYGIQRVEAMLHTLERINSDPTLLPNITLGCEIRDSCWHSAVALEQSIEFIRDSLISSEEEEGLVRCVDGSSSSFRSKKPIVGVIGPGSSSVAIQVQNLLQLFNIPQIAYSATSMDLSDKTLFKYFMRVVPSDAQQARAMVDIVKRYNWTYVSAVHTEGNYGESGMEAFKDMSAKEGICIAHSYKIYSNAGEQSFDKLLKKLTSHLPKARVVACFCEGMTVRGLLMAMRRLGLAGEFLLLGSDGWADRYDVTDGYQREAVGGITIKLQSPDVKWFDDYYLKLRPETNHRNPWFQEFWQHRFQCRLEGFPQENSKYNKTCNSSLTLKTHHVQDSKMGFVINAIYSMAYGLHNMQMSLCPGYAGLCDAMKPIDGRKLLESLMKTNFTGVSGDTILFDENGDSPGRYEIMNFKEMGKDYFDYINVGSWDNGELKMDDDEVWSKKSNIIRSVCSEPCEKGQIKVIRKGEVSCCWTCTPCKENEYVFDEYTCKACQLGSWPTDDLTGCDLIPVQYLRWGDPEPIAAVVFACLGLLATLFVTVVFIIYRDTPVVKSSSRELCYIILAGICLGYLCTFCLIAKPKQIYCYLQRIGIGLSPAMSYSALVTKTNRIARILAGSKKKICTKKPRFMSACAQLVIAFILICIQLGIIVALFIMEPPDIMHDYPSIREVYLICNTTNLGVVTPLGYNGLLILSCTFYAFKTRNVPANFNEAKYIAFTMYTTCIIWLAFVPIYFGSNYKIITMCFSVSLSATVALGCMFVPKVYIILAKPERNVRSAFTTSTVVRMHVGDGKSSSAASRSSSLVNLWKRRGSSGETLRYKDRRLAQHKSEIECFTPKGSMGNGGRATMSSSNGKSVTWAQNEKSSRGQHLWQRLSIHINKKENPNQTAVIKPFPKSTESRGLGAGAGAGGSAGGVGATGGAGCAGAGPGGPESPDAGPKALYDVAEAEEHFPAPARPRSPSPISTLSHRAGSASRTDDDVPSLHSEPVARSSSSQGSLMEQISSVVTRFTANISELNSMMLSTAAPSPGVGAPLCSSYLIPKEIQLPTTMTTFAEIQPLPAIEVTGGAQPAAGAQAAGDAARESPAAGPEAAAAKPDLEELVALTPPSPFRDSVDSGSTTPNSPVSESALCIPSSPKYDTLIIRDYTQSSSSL

Compound: COc1cccc([C@H]2OC(=O)N[C@@H]2c2cccc(C#Cc3ccccc3)c2)c1
Activity (Mus musculus [1]): Non-toxic
pEC50 [2]: < 4.52
pKi [3]: 7.89
pEC50 [4]: 7.54
fraction unbound [5]: 0.003

Compound: O=C1N[C@H](c2cncc(C#Cc3ccccc3)c2)[C@@H](c2cccc(F)c2)O1
Activity (Mus musculus [8]): Toxic
fraction unbound [5]: 0.004
Activity (Mus musculus [9]): Toxic

Compound: O=C1N[C@H](c2cccc(C#Cc3ccccc3)c2)[C@@H](c2cccc(F)c2)O1
pEC50 [2]: < 4.52
pEC50 [4]: 7.82
pKi [10]: 8.19

The next lines start with results.

pKi [3]: 7.60
pEC50 [4]: 8.22
fraction unbound [5]: 0.035
pEC50 [7]: 6.51
Compound: O=C1N[C@H](c2cncc(C#Cc3cncc(F)c3)c2)[C@@H](c2ccc(F)cc2)O1
Activity (Mus musculus [1]): Toxic
Activity (Mus musculus [6]): Non-toxic

Cmax [11]: 41000 nM
Activity [12]: inactive
Activity [13]: > 10 µM
pIC50 [14]: ≤ 5.89
pIC50 (Progesterone receptor): 5.64
Activity [16]: > 10 µM
bioavailability [17]: 100%
Vd [18]: 1.8 L/kg
AUC(0-t) at 24 h [19]: 751 µM·h
Activity [20]: > 10 µM
Activity [21]: > 10 µM
concentration (Brain [22]): 34 nM
Activity [23]: > 10 µM
concentration (Plasma [26]): 34 nM
Activity [29]: > 10 µM
Activity [30]: > 10 µM
Activity [31]: > 10 µM
Activity [32]: > 10 µM
Activity [33]: > 10 µM
Activity [35]: > 10 µM
bioavailability [36]: 68%
concentration (Brain [37]): 178 nM
inhibition [38]: inactive
Activity [40]: > 10 µM
bioavailability [41]: 50%
clearance [42]: 11 mL/min/kg
Activity [44]: > 10 µM
Activity [45]: > 10 µM
Kp [46]: 1
inhibition (Homo sapiens): 40%
Activity [47]: > 10 µM
Activity [48]: > 10 µM
Activity [50]: > 10 µM
fraction unbound [5]: 0.007
Activity [52]: > 10 µM
Activity [53]: > 10 µM
Activity [54]: > 10 µM
concentration (Plasma [55]): 116 nM
Activity [57]: > 10 µM
Compound: O=C1N[C@H](c2cncc(C#Cc3ccccc3)c2)[C@@H](c2cc(F)ccc2F)O1
Activity (Rattus norvegicus [15]): Non-toxic
minimal effective dose (Mus musculus [24]): 0.3 mg/kg
Activity (Salmonella typhimurium [25]): Non-toxic
Occ (Mus musculus [27]): 94%
minimal effective dose (Rattus norvegicus [28]): 0.1 mg/kg
Activity (Canis familiaris): Non-toxic
Occ (Rattus norvegicus [34]): 19%
Activity (Rattus norvegicus [39]): Non-toxic
Activity (Salmonella typhimurium [43]): Non-toxic
Occ (Mus musculus [49]): 18%
Activity (Rattus norvegicus [51]): Non-toxic
Activity (Mus musculus [56]): Non-toxic
pIC50 [58]: 5.44

pEC50 [2]: < 5.52
pKi [3]: 8.00
pEC50 [4]: < 5.52
fraction unbound [5]: 0.006
Compound: O=C1N[C@H](c2cc(C#Cc3ccccc3)ccn2)[C@@H](c2ccccc2)O1
Activity (Mus musculus [56]): Non-toxic
